Source: patent US20100048671A1, “INHIBITION OF THE 44 KILODALTON ISOFORM OF PIM-1 KINASE RESTORES APOPTOSIS INDUCED BY CHEMOTHERAPEUTIC DRUGS IN CANCER CELLS” (priority 2005, published 2010)
Where two headings read alike, the source gives them in different places.

Assays:
Format in all cases: cell-based, human
[1] = system: LNCaP cells over-expressing BCRP; assay: Drug sensitivity (WST-1) of LNCaP cells over-expressing BCRP infected with lenti-virus encoding Pim-1 SiRNA; details: MX (0.5 μM) or TPT (0.1 μM), 2 days
Method: FIG. 13A: LNCaP cells infected with lenti-virus encoding vector control, BCRP, Pim-1SiRNA or both were treated with the indicated drugs MX (0.5 μM) or TPT (0.1 μM) for 2 days. Cell viability was determined using the WST-1 assay FIG. 13B: Immunoprecipitation was performed by using anti-BCRP.

CWR-R1 cells = assay: Drug sensitivity (WST-1) of CWR-R1 cells infected with lenti-virus encoding Pim-1 SiRNA; details: mitoxantrone (2 μM), topotecan (5 μM) or docetaxel (50 nM), 2 days
Method: FIG. 12A: CWR-R1 cells infected with lenti-virus encoding vector control and Pim-1 SiRNA were treated with MX (2 μM), TPT (5 μM) or DTX (50 nM), respectively for 2 days. Cell viability was determined using the WST-1 assay. FIG. 12B: immunoprecipitation performed by using anti-BCRP.
(§1) The phosphorylation of BCRP is therapeutically significant because it […] BCRP from causing resistance to chemotherapeutic agents. […] Downregulating Pim-1L expression by a specific siRNA also sensitized the prostate cancer cell line CWR-R1 to apoptosis induced by the chemotherapeutic agents mitoxantrone, topotecan and docetaxel (FIG. 12). The siRNA target sequence for inhibiting Pim-1L expression used to inhibit Pim-1L expression is sequence is: 5′ GCAGGACAGUGCUUGAUAC 3′ identified as SEQ ID NO. 3, as is described in a previous study (29, the entire contents of which is hereby incorporated by reference as if fully set forth herein). This siRNA is targeted at nucleotides 1540-1558 of SEQ ID NO. 1.

MCF7-MX cells = assay: Drug sensitivity (WST-1) of MCF7-MX cells infected with lenti-virus encoding Pim-1 SiRNA; details: Flavopiridol (15 μM) or DTX (50 μM), 2 days
Method: FIG. 11A: MCF7-MX cells infected with lenti-virus encoding vector control and Pim-1 SiRNA were treated with Flavopiridol (15 μM) or DTX (50 μM) as indicated for 2 days. Cell viability was determined using the WST-1 assay. P<0.05 FIG. 11B: expression levels of Pim-1, BCRP and actin analyzed by immunoblotting with the respective antibodies.
as §1

Pim-1L = assay: Threonine phosphorylation of endogenous BCRP after Pim-1 siRNA (immunoprecipitation with anti-BCRP, immunoblotting with anti-phosphothreonine); details: MCF7/MX cells; lenti-virus encoded siRNA vs vector control
Text: MCF7-MX cell lysates infected with lenti-virus encoding Vector control and Pim-1 SiRNA(SiPim-1) were subjected to immunoprecipitation with monoclonal BCRP antibody, followed by immunoblotting with anti-phosphothreonine (αpThr).
as §1
The transfected cells were lysed in the buffer (20 mM TrisHCl pH 7.4, 150 mM NaCl, 1 mM EDTA, 1 mM EGTA, 1% Triton X-100, 1 mM Na3VO4, 1 mg/ml aprotinin, 1 mg/ml leupterin and 1 mM PMSF). Insoluble material was removed by centrifugation, and antibodies were added to lysates and incubated for 1-3 hour at 4° C. […]

LNCaP cells [2] = assay: Drug sensitivity assay (WST-1 cell viability) of lenti-virus infected LNCaP cells treated with doxorubicin; details: for viability at 0.1 µg/mL: Homo sapiens, LNCaP, read-out: cells remained viable
Method: FIG. 5A: LNCaP cells infected with lenti-virus encoding Flag-Pim-1S, Pim-1L, Pim-1LKM (kinase-deficient mutant) or vector control were treated with doxorubicin (0.1 ug/ml) for the times as indicated. Cell viability was determined by the WST-1 assay. The data were expressed as the mean of triplicates of the doxorubicin-treated samples relative to the untreated controls. * p<0.01 compared with the vector control. The expression of the Pim-1 proteins encoded by the lenti-viruses was determined by immunoblotting with anti-Flag antibody. […] The response to doxorubicin was determined at 20 hour as above. * p<0.01 compared with the vector control; ** p<0.01 compared with Pim-1L alone. Expression of Flag-Pim-1L and T7-EtkKQ was monitored by immunoblotting with anti-Flag and anti-T7 antibody, respectively. FIG. 5C: LNCaP cells infected with the lenti-viruses encoding the indicated proteins as in 5A were treated with 10-100 nM mitoxantrone for 48 h; cell viability was determined as in 5A. * p<0.01 compared with the vector control. FIG. 5D: Etk mediates Pim-1L-induced resistance to mitoxantrone. LNCaP cell were infected with the lenti-viruses and the mitoxatrone response was determined. * p<0.01 compared with the vector control; ** p<0.01 compared with Pim-1L alone. […] LNCaP cells were transfected with the plasmids as indicated. The association of Etk with p53 was determined by immunoprecipitation with anti-p53 and followed by immunoblotting with anti-T7 antibody. The expression of p53, Etk or Pim-1 in these cells was monitored by immunoblotting with anti-p53, anti-T7 and anti-Flag antibody, respectively.
An increase of Etk activity confers drug resistance to apoptosis caused by chemotherapeutic agents in LNCaP cells (20), including doxorubicin and cisplatin. By contrast, P53 binding to Etk decreases Etk activity permits apoptosis. However, the mechanism by which Etk is activated was not known. […] As is shown in FIG. 5A, treatment of LNCaP cells with doxorubicin induced rapid apoptosis as was expected. […] Over-expression of Pim-1S conferred some initial protection against drug-induced apoptosis with about 80% cell survival at 20 h. However, such protection was not sustained until 40 hours. […] In this experiment, LNCaP cells were infected with Lenti-virus encoding Flag-Pim-1 S, Pim-1L, Pim-1LKM (kinase-deficient mutant) or vector control for 24h.
LNCaP cells were infected with the lentiviruses encoding the proteins as indicated by using the protocol described previously (19). At 48 hour post-infection, the cells were seeded into the 96 well plates (3×10^4/well). Doxorubicin or mitoxantrone was added in the medium after 24 h. The effects of doxorubicin on the viability of cells were measured after 20-48 hour by the WST-1 assay (Roche Molecular Biochemicals). The viability rates are expressed as means±SD of the triplicate for each experiment. An aliquot of cells was lysed and followed by immunoblotting with anti-T7 or anti-Flag to monitor the transfection efficiency.

LNCaP cells [3] = assay: Induction of Pim-1 expression by IL-6 (immunoblotting with monoclonal anti-Pim-1 antibody); details: serum starved LNCaP cells; 25 ngml IL-6, 24 hour, 37 degrees
Text: FIG. 1A: Induction of Pim-1 expression by IL-6 in LNCaP cells. FIG. 1B: The effects of neutralizing antibody against IL-6 on the protein level of Pim-1 in PC3 cells. FIG. 1C: Expression of the two isoforms of Pim-1 by the EST clones in transfected LNCaP, 22Rv1 and PC3 cells FIG. 1D: The N-terminal unique sequence in human 44 kD Pim-1. Part of the sequence of the 5′ end of Pim-1 cDNA in the EST clones is shown. The putative alternative translation initiation site CUG and the start codon AUG are in boldface. FIG. 1E: Alignment of the unique N-terminal sequence in the 44 kD Pim-1 from human and mouse origins. Proline-rich motifs are underlined and bold. The translation initiation sites of the two isoforms are shown by arrows.
Induction of Pim-1 expression by IL-6 was assessed in serum starved LNCaP cells that were treated with 25 ngml IL-6 for 24 hour at 37 degrees. The level of Pim-1 protein was examined by immunoblotting with a monoclonal anti-Pim-1 antibody (Top). The same blot was then probed with anti-actin to monitor the sample loading (Bottom). […] One embodiment of the present invention is directed to the isolated human 44 kD isoform identified by SEQ ID NO. 4 or a functional equivalent or variant thereof and its use in screening assays. We are the first to isolate and describe the gene for the 44 kD isoforms identified in SEQ ID NO. […]

5′ GCAGGACAGUGCUUGAUAC 3′ (lentivirus encoded, further chemistry not given here; listed as Homo sapiens) [siRNA, 1, lenti-virus encoded]
BCRP-mediated resistance to mitoxantrone and topotecan [1]: able to reduce or compromise BCRP-mediated resistance | sensitivity to apoptosis induced by chemotherapeutic agents (CWR-R1 cells): sensitized | BCRP-mediated drug resistance (MCF7-MX cells): inhibited BCRP-mediated drug resistance | phosphorylation of BCRP (Pim-1L): significantly reduced

COc1cccc2c1C(=O)c1c(O)c3c(c(O)c1C2=O)C[C@@](O)(C(=O)CO)C[C@@H]3O[C@H]1C[C@H](N)[C@H](O)[C@H](C)O1 [doxorubicin]
viability at 0.1 µg/mL (LNCaP cells [2]; 20 h): ~50% | viability at 0.1 µg/mL (LNCaP cells [2]; 40 h): > 70% | apoptotic cells detected (LNCaP cells [2]; LNCaP cells expressing Pim-1L, doxorubicin 0.1 ug/ml, 20 hours post-treatment): Virtually no apoptotic cells were detected | cells that survived (LNCaP cells [2]; LNCaP cells expressing the empty vector or kinase-inactive Pim-1LKM, doxorubicin 0.1 ug/ml, 40 hour treatment): 20% | cell survival (LNCaP cells [2]; LNCaP cells over-expressing Pim-1S, doxorubicin 0.1 ug/ml, 20 h): about 80%

IL-6: interleukin 6, cytokine used to induce Pim-1 expression
expression of the 44 kD Pim-1 protein (LNCaP cells [3]): induced
